# Laboratory results from patent US20200289527A1, “FORMULATION CONTAINING A-DECARBONIZED-5a ANDROSTANE COMPOUND FOR INCREASING WHITE BLOOD CELL AND USE THEREOF” (priority 2017, published 2020).
# Like-named read-outs stand apart in the source and are kept apart here. Marks after values point to notes of the source that are not given here.
# Key:
# [1] = tested on: white blood cells in mice bearing Lewis lung tumor
# From the text: The vigorously growing tumor cells were taken and prepared into cell suspension with a concentration of about 5-10×10^6/ml by homogenization under sterile condition.
# At the beginning of the experiment, 10 mice were randomly sampled for blood collection by posterior orbital venous plexus puncture, and an automatic blood cell analyzer (HEMAVET-950) was used to conduct the routine blood test. Then the blood was collected for the routine blood test by the same method on the 8th and 12th days after the last administration of cyclophosphamide.
# [2] = tested on: white blood cells in tumor patients; conditions: for Effect of increasing WBC (C1/Czs): all 10 subjects, 15-45 mg total daily dose, Day 0 = 100%; for average extent of increasing white blood cells: average of subjects
# Procedure: Blood was collected on the day before the administration, and the routine blood test was conducted to determine the number of white blood cells (Czs) before the subjects were treated with the medicine of the present invention.
# 10 subjects took ACP at different administrated frequency and dose every day (see Table 2). Blood was collected from 10 subjects at Day 8, 15, 22, and 28 for routine blood test.
# [3] = subject GBYI, Day 0 count 4.3, once a day, total daily dose 15 mg
# [4] = subject LXJV, Day 0 count 2.7, three times a day, total daily dose 30 mg
# [5] = chemotherapy control group, CTX 150/100 mg/kg ip, reference = 100%
structure (smiles),measurement,setting,value
"C#C[C@@]1(OC(C)=O)C[C@@H]2CC[C@@H]3[C@H](CC[C@@]4(C)[C@H]3CC[C@]4(C#C)OC(C)=O)[C@@]2(C)C1 [ACP1, 2α,17α-diethynyl-A-decarbonized-5α-androstane-2β,17β-dihydroxyl diacetate compound]",Day 8 (10^3 WBC/μl),"[1]; mouse, in vivo, 5 mg/kg",4.21 ± 1.22 10^3 WBC/μl
same,Day 8 (%),"[1]; mouse, in vivo, 5 mg/kg",1027%*
same,Day 12 (10^3 WBC/μl),"[1]; mouse, in vivo, 5 mg/kg",4.32 ± 1.29 10^3 WBC/μl
same,Day 12 (%),"[1]; mouse, in vivo, 5 mg/kg",292%*
same,Effect of increasing WBC (C1/Czs),[2]; Day 8,146%
same,extent of increasing white blood cells (Cl/Czs-100%),"[2]; Day 8, compared with before treatment",about 50%
same,Effect of increasing WBC (C1/Czs),[2]; Day 15,180%
same,average extent of increasing white blood cells,[2]; Day 15,about 80%
same,maximum extent of increasing white blood cells,"[2]; Day 15, maximum among subjects",about 178%
same,extent of increasing white blood cells,[2]; Day 22,about 63%
same,Effect of increasing WBC (C1/Czs),[2]; Day 22,163%
same,Effect of increasing WBC (C1/Czs),[2]; Day 28,149%
same,average extent of increasing white blood cells,[2]; Day 28,about 50%
same,"WBC count during administration, Day 8",[2]; [3],5.8 10^9/L
same,"WBC count during administration, Day 15",[2]; [3],6.9 10^9/L
same,"WBC count during administration, Day 22",[2]; [3],6.3 10^9/L
same,"WBC count during administration, Day 28",[2]; [3],7.0 10^9/L
same,"WBC count during administration, Day 8",[2]; [4],5.9 10^9/L
same,"WBC count during administration, Day 15",[2]; [4],7.5 10^9/L
same,"WBC count during administration, Day 22",[2]; [4],6.0 10^9/L
same,"WBC count during administration, Day 28",[2]; [4],6.1 10^9/L
"O=P1(N(CCCl)CCCl)NCCCO1 (centres unmarked) [CTX, cyclophosphamide]",effect on white blood cells of peripheral blood in mice,[1]; chemotherapy control group,caused a decrease of white blood cells of peripheral blood in mice
same,Day 8 (10^3 WBC/μl),"[1]; chemotherapy control group, CTX 150/100 mg/kg ip, 8th day after last CTX",0.41 ± 0.07 10^3 WBC/μl
same,Day 12 (10^3 WBC/μl),"[1]; chemotherapy control group, CTX 150/100 mg/kg ip, 12th day after last CTX",1.48 ± 0.37 10^3 WBC/μl
same,Day 8 (%),[1]; [5],100%
same,Day 12 (%),[1]; [5],100%
